Test results reported in US20090238852A1, “METHODS FOR CONTROLLING INTRACELLULAR CALCIUM LEVELS ASSOCIATED WITH AN ISCHEMIC EVENT” (University of Utah Research Foundation, priority 2008, published 2009).

Experiments:
[1] = tested on: anti-coagulant activity (USP); conditions: product of the procedure of U.S. Pat. No. 5,990,097; cited from earlier work
[2] = tested on: rabbit ventricular myocytes; assay: [Na^+]i in paced myocytes exposed to ATX, no metabolic inhibition; assay type: cell-based; conditions: FIG. 9
Description: In these studies, intracellular calcium concentration [Ca^++]i was measured by flow cytometry. Measurement of isolated mouse and rabbit ventricular myocyte [Ca^2+]i and [Na^+]i by flow cytometry has been described (Zhang et al., J. Cardiovasc. Pharmacol. 51: 443-449 (2008); Li et al., J. Mol. Cell. Cardiol. 33: 2145-2155 (2001)). [Ca^++]i was measured with the Ca^++ sensitive fluorescent probe, Fluo 3-AM (Molecular Probes, Eugene, Oreg.), using a FACScan (Becton-Dickinson, MA). The cells were exposed to 4 μmol/L Fluo-3 AM for 30 min at 37° C. The cells were then separated into aliquots. […] Metabolic ischemia was accomplished by incubating cells in a glucose-free MKRBB solution (pH 7.40) containing 2 mmol/L sodium cyanide (NaCN) to impair mitochondrial and glycolytic generation of ATP. To reproduce the situation in the beating ischemic heart, during the period of metabolic ischemia, myocytes were placed in a 5-well chamber with equal volumes of myocyte suspensions from the same heart dissociation placed in each well. The chamber was water bathed to maintain temperature at 37° C. and bubbled with 5% CO2 in air to keep myocytes in suspension. Each well was fitted with platinum sheet electrodes on both sides for field stimulation. One chamber was constructed with a glass coverslip bottom so that myocytes can be observed microscopically to assess capture threshold. Placing electrodes were connected in series to a constant current pulse generator that delivers a 0.2 ampere pulse at 0.5 Hz. […] Approximately 2×10^3 myocytes were analyzed to calculate average emission fluorescence intensity in each sample. […] Only those cells with low fluorescence intensity at 670 nm (PI-negative cells or viable cells) were included in the comparative analysis of [Ca^++]i. The sample [Ca^2+]i values were calculated by Mn^2+ quenching (Sugishita et al, 2001) and [Na^+]i values by comparison with a standard curve of varied [Na^+]i versus Na Green fluorescence. […] Results were expressed as means±SEM. […]

[3] = human, in vivo
Description: A study was performed in eight (8) healthy adult male and female subjects to assess the effects of a bolus dose and 72 hour infusion of 2-O, 3-O desulfated heparin. The study was a Phase I study with a three day treatment period. Doses were adjusted to maintain an aPTT level of 40-45 seconds. Subjects were between the ages of 18 and 60, were not pregnant, and were normal in body weight. They all had normal coagulation function and hemoglobin values at baseline.
Subjects received an initial bolus of 8 mg/kg of ODSH over 15 minutes, followed by 72 hours continuous infusion beginning at 0.58 mg/kg/hr. For each subject ODSH as a 50 mg/ml formulation was diluted with normal saline and administered as a bolus infused over 15 minutes containing the calculated amount of ODSH the subject was to receive, followed by infusion of ODSH diluted in saline. The infusion dose was adjusted to maintain an aPTT of 40-45 seconds. Immediately before infusion and after the start of each infusion, blood was drawn at periodic times (over a total 72 hour period) to monitor the effect of infusion on the following laboratory studies: activated partial thromboplastin time (aPTT), prothrombin time (PT), activated clotting time (ACT), and ODSH plasma level. Serum chemistries and a complete blood count were checked immediately before infusion and again periodically for up to 240 hours later. Using values for aPTT and ODSH levels, pharmacokinetic parameters were calculated by noncompartmental methods using a commercial software program (PhAST 2.3-001). The following pharmacokinetic parameters were calculated as above: Cmax; Kel; tmax; AUC O-t; AUCinf, t1/2; CL; and Vdss.

NCX = NCX current (INCX) voltage clamp in intact isolated ventricular myocytes; assay type: cell-based, rabbit; conditions: ODSH 100 μg/ml; approximately −60 mV to +50 mV; n = 5; FIG. 7
Text: The direct effects of ODSH on NCX were further measured by means of voltage clamp studies in intact isolated rabbit ventricular myocytes. […] This finding was initially surprising but is consistent with a previous report that heparin and heparan sulfate disaccharides can stimulate Ca^2+ extrusion by NCX in smooth muscle cell lines (Shinjo et al, 2002). […] We therefore studied the effects of ODSH on Na^+ loading.

Substance: 2-O, 3-O desulfated heparin [ODSH]
- anti-coagulant activity [1]: less than 10 USP units/mg
- effect on ATX-induced increase in [Na^+]i ([2]; ODSH 100 ug/ml with ATX 10 nM): almost completely inhibited
- effect on [Na^+]i in the absence of ATX ([2]; ODSH 100 ug/ml, HEPES + pacing alone): reduced [Na^+]i in myocytes in the absence of ATX but to a much smaller extent
- CL [3]: 0.17 mL/min/kg
- Vdss [3]: 0.0489 L/kg
- t1/2 [3]: 3.3 h
- tmax [3]: 0.5 h
- AUC, range across subjects ([3]; 8 mg/kg): 3,528-4,694 μg hr/mL
- CL, range across subjects ([3]; 8 mg/kg): 0.147 to 0.197 mL/min/kg
- Cmax, range across subjects ([3]; 8 mg/kg): 131 to 192 µg/mL
- Vdss, range across subjects ([3]; 8 mg/kg): 0.0237 to 0.0662 L/kg
- t1/2, range across subjects ([3]; 8 mg/kg): 1.9 to 4.4 h
- effect on NCX current (INCX) (NCX): significant stimulation of exchange
